Data set [1] deals with T1, Integrin alpha-V/beta-6 (Homo sapiens, UniProt P06756+P18564). Description: Inhibition of integrin alphavbeta6 (unknown origin) by radioligand binding assay. It is filed as protein-complex assay.
Data set [2] is filed under the species Homo sapiens. As to the kind of experiment: Selectivity ratio of IC50 for integrin alphavbeta1 (unknown origin) expressed in human A549 cells to IC50 for integrin alphavbeta6 (unknown origin) expressed in human K562 cells. It is filed as cell-based.
For data set [3], the species on record is Homo sapiens. As to the kind of experiment: Selectivity ratio of IC50 for integrin alphavbeta3 (unknown origin) expressed in human K562 cells to IC50 for integrin alphavbeta6 (unknown origin) expressed in human K562 cells. It is filed as cell-based.
The species entered for data set [4] is Homo sapiens. Description: Selectivity ratio of IC50 for integrin alphavbeta5 (unknown origin) expressed in human K562 cells to IC50 for integrin alphavbeta6 (unknown origin) expressed in human K562 cells. Format: cell-based.
The species named for data set [5] is Homo sapiens. As to the kind of experiment: Selectivity ratio of IC50 for integrin alphavbeta8 (unknown origin) expressed in human K562 cells to IC50 for integrin alphavbeta6 (unknown origin) expressed in human K562 cells. Format: cell-based.
Data set [6] has as its target Integrin alpha-V/beta-1 (Homo sapiens, UniProt P05556+P06756).
Description: Inhibition of integrin alphavbeta1 (unknown origin) expressed in human A549 cells assessed as reduction in cell adhesion to GST-LAP1 (242 to 252 amino acids) incubated for 30 mins by fluorescent probe BCECF-AM based fluorescence assay
The target in data set [7] is Integrin alpha-V/beta-3 (Homo sapiens, UniProt P05106+P06756).
Description: Inhibition of integrin alphavbeta3 (unknown origin) expressed in human K562 cells assessed as reduction in cell adhesion to GST-LAP1 (242 to 252 amino acids) incubated for 30 mins by fluorescent probe BCECF-AM based fluorescence assay
Data set [8] deals with Integrin alpha-V/beta-5 (Homo sapiens, UniProt P06756+P18084).
Description: Inhibition of integrin alphavbeta5 (unknown origin) expressed in human K562 cells assessed as reduction in cell adhesion to human vitronectin incubated for 30 mins by fluorescent probe BCECF-AM based fluorescence assay
Data set [9] deals with Integrin alpha-V/beta-8 (Homo sapiens, UniProt P06756+P26012).
Description: Inhibition of integrin alphavbeta8 (unknown origin) expressed in human K562 cells assessed as reduction in cell adhesion to GST-LAP1 (242 to 252 amino acids) incubated for 30 mins by fluorescent probe BCECF-AM based fluorescence assay
Data set [10] has as its target T1, Integrin alpha-V/beta-6.
Description: Inhibition of integrin alphavbeta6 (unknown origin) expressed in human K562 cells assessed as reduction in cell adhesion to GST-LAP1 (242 to 252 amino acids) incubated for 30 mins by fluorescent probe BCECF-AM based fluorescence assay
For data set [11] the following is noted: buffer.
Description: (§1) Aqueous kinetic solubility of the compund by CLND method
A short description of data set [12]: physchem. The note with it: buffer, pH 7.4.
Description: Lipophilicity, logD of the compound at pH 7.4 by chromatographic method
The nature of data set [13]: Inhibition of human LAP binding to human integrin alphavbeta8 after 2 hrs.
Data set [14] can be described thus: Inhibition of integrin alphavbeta8 (unknown origin) by radioligand binding assay. On the set-up: species or system Homo sapiens.
The nature of data set [15]: Stability in cryopreserved Wistar-Han rat hepatocytes assessed as compound turnover rate at 0.5 uM measured up to 60 mins by LC-MS/MS analysis. Format: ADME, cell-based, Hepatocyte. The note with it: 1 h.
Data set [16] in a line: Stability in cryopreserved human hepatocytes at 0.5 uM measured up to 60 mins by LC-MS/MS analysis. The note with it: 1 h. It is filed as ADME, cell-based, Hepatocyte.
Data set [17] in a line: Blood clearance in dual cannulated Wistar-Han rat at 1 mg/kg, iv administered as infusion for 30 mins and measured up to 24 hrs by LC-MS/MS analysis. It is filed as ADME, organism-based. The note with it: whole blood.
Data set [18] can be described thus: Unbound blood clearance in dual cannulated Wistar-Han rat at 1 mg/kg, iv administered as infusion for 30 mins and measured up to 24 hrs by LC-MS/MS analysis. Format: ADME, organism-based. The note with it: in vivo.
Data set [19] in a line: Volume of distribution in dual cannulated Wistar-Han rat at 1 mg/kg, iv administered as infusion for 30 mins and measured up to 24 hrs by LC-MS/MS analysis. It is filed as ADME, organism-based. The note with it: in vivo.
Data set [20] deals with Voltage-gated inwardly rectifying potassium channel KCNH2 (Homo sapiens, UniProt Q12809). As to the kind of experiment: Inhibition of human ERG expressed in CHO-K1 cells at -80 mV holding potential by IonWorks barracuda automated electrophysiology method. Format: cell-based.
A short description of data set [21]: Protein binding in rat blood assessed as unbound fraction at 1 ug/ml incubated for 4 hrs by LC-MS/MS-based rapid equilibrium dialysis method. It is filed as ADME, tissue-based. The note with it: at 1 µg/mL. (In general: Equilibrium dialysis compares concentrations on both sides of a semipermeable membrane.)
A short description of data set [22]: Protein binding in human blood assessed as fraction unbound at 1 ug/ml incubated for 4 hrs by LC-MS/MS-based rapid equilibrium dialysis method. It is filed as ADME, tissue-based. The note with it: at 1 µg/mL.
Data set [23] can be described thus: Protein binding in human lung homogenates assessed as fraction unbound at 1 ug/ml incubated for 4 hrs by LC-MS/MS-based rapid equilibrium dialysis method. It is filed as ADME, tissue-based. The note with it: at 1 µg/mL.
Data set [24] is described as follows: Drug metabolism assessed as unmethylated (3S)-3-[3-(3,5-dimethylpyrazol-1-yl)phenyl]-4-[(3R)-3-[2-(5,6,7,8-tetrahydro-1,8-naphthyridin-2-yl)ethyl]pyrrolidin-1-yl]butanoic acid hydrochloride formation.
Data set [25] in a line: Blood clearance in dual cannulated Wistar-Han rat at 1 mg/kg, iv administered as infusion for 60 mins and measured up to 7 hrs by LC-MS/MS analysis. The note with it: whole blood. It is filed as ADME, organism-based.
A short description of data set [26]: Unbound blood clearance in dual cannulated Wistar-Han rat at 1 mg/kg, iv administered as infusion for 60 mins and measured up to 7 hrs by LC-MS/MS analysis. It is filed as ADME, organism-based. The note with it: in vivo.
A short description of data set [27]: Volume of distribution in dual cannulated Wistar-Han rat at 1 mg/kg, iv administered as infusion for 60 mins and measured up to 7 hrs by LC-MS/MS analysis. The note with it: in vivo. Format: ADME, organism-based.
Data set [28] in a line: Half-life in dual cannulated Wistar-Han rat at 1 mg/kg, iv administered as infusion for 60 mins and measured up to 7 hrs by LC-MS/MS analysis. It is filed as ADME, organism-based. The note with it: in vivo.
Data set [29] in a line: in vitro. The note with it: not told.
Description: Permeability of the compound
Data set [30] can be described thus: physchem. The note with it: buffer.
Description: as §1

Sequence of Integrin alpha-V/beta-1 (P05556 21-798 limits assumed): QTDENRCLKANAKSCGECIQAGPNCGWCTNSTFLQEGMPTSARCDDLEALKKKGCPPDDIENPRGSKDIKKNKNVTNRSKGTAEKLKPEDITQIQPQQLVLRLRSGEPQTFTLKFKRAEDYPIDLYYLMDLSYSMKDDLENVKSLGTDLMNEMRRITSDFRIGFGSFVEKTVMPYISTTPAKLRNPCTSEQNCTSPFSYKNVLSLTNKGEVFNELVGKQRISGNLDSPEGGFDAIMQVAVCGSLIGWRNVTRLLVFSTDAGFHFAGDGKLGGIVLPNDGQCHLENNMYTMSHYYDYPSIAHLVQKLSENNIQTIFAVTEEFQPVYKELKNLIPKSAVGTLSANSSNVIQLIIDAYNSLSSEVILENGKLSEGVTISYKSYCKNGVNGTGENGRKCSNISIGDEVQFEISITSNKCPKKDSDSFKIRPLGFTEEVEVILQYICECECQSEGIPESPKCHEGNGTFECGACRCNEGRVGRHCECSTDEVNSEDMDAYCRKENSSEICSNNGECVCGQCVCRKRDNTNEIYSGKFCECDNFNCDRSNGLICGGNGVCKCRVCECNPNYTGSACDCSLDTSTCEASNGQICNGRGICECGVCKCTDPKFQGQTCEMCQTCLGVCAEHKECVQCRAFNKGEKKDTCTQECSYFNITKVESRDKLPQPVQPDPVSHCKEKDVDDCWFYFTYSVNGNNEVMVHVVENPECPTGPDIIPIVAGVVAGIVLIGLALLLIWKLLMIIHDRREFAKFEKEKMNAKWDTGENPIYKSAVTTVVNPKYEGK
Sequence of Integrin alpha-V/beta-1 (P06756 31-889 limits assumed): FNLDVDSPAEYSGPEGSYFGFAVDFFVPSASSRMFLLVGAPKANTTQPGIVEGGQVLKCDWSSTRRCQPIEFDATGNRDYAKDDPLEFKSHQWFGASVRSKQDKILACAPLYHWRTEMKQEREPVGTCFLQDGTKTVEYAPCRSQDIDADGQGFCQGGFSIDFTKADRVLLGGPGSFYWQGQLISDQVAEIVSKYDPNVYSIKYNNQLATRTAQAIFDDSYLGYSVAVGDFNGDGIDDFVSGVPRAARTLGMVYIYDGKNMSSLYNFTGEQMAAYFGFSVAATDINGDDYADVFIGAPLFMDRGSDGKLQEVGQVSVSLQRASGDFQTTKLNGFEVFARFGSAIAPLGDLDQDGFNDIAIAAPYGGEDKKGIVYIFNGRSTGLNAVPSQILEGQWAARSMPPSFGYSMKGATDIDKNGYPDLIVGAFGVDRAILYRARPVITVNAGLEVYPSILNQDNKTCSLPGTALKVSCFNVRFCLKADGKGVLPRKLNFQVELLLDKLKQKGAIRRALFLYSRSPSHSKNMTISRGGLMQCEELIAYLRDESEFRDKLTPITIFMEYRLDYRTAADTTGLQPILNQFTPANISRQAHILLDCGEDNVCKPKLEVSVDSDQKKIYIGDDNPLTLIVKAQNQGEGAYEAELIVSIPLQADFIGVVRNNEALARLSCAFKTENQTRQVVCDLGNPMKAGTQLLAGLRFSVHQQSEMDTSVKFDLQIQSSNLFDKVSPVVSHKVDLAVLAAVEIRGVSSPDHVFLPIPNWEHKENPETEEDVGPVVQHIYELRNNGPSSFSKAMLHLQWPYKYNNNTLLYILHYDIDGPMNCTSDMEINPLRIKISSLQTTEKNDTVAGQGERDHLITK
Sequence of Integrin alpha-V/beta-1 (P06756 891-1048 limits assumed): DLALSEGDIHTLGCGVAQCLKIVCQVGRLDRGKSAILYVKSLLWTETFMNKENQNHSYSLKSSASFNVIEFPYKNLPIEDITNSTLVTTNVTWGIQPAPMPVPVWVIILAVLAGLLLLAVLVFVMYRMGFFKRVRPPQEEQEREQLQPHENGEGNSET
T1 sequence (P06756 31-889 limits assumed): as the sequence (P06756 31-889 limits assumed) above
T1 sequence (P06756 891-1048 limits assumed): as the sequence (P06756 891-1048 limits assumed) above
T1 sequence (P18564 22-788 limits assumed): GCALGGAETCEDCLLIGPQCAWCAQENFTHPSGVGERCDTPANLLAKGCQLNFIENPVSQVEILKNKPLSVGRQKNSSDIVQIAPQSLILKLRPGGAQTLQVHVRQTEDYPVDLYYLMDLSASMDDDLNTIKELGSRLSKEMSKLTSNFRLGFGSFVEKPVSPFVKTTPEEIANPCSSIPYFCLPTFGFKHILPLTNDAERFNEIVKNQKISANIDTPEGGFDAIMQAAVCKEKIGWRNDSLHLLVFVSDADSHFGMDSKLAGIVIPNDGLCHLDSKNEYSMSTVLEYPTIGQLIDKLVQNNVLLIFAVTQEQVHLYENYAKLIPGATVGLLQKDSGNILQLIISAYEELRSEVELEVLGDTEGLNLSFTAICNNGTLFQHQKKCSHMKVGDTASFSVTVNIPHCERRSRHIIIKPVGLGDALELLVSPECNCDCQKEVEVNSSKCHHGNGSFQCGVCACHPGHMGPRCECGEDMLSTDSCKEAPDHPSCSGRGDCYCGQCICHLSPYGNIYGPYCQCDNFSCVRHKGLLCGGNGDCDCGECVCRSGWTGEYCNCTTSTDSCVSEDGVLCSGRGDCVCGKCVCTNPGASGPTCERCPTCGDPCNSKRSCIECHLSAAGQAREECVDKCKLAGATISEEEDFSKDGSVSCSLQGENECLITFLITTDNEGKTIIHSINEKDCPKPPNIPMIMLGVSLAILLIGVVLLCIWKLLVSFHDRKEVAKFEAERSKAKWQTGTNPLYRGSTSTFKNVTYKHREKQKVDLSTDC
Sequence of Integrin alpha-V/beta-8 (P06756 31-889 limits assumed): as the sequence (P06756 31-889 limits assumed) above
Sequence of Integrin alpha-V/beta-8 (P06756 891-1048 limits assumed): as the sequence (P06756 891-1048 limits assumed) above
Sequence of Integrin alpha-V/beta-8 (P26012 43-769 limits assumed): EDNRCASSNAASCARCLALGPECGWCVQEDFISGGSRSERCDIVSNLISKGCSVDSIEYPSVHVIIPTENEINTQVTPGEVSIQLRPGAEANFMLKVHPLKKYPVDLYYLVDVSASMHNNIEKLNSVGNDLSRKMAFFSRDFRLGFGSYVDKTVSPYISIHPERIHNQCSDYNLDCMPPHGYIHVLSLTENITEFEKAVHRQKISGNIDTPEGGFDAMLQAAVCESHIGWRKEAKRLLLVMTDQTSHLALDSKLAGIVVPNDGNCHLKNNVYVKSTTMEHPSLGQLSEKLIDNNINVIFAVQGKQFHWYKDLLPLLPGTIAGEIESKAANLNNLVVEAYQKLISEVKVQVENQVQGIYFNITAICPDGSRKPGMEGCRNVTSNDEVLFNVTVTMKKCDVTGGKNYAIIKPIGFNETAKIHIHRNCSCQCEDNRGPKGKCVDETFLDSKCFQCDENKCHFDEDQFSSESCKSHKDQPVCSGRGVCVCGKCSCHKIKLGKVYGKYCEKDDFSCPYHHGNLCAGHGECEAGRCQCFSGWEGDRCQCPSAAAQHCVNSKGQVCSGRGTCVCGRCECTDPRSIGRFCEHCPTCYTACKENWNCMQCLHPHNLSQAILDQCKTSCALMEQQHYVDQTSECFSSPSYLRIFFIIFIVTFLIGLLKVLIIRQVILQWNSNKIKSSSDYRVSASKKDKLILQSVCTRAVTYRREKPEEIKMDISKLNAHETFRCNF
Sequence of Integrin alpha-V/beta-5 (P06756 31-889 limits assumed): as the sequence (P06756 31-889 limits assumed) above
Sequence of Integrin alpha-V/beta-5 (P06756 891-1048 limits assumed): as the sequence (P06756 891-1048 limits assumed) above
Sequence of Integrin alpha-V/beta-5 (P18084 24-799 limits assumed): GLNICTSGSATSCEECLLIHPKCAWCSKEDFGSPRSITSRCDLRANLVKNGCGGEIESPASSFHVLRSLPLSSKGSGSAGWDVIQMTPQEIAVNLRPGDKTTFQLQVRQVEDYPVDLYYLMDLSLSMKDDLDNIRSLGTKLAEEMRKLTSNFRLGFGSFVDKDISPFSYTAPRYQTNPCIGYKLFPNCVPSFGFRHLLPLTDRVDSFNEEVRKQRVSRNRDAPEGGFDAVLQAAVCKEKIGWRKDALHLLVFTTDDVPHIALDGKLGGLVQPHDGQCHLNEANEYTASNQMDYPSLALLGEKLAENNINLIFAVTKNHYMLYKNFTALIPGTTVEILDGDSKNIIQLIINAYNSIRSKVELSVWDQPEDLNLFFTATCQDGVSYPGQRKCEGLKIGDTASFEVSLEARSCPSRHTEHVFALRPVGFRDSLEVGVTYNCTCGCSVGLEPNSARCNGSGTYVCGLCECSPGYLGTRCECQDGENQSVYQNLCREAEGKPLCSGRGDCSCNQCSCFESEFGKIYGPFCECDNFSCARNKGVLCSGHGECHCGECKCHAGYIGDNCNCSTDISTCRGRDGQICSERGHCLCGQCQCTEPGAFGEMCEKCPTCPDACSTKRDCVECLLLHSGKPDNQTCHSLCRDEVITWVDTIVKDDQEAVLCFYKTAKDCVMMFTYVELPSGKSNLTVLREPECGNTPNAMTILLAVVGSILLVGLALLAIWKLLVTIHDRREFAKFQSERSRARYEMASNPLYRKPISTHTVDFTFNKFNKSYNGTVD

Turning to `Cc1cc(C)n(-c2cccc([C@H](CC(=O)[O-])C[N@+]3(C)CC[C@@H](CCc4ccc5c(n4)NCCC5)C3)c2)n1`, the inhibitory constant (Ki) (in general, the dissociation constant of the complex between target and ligand, obtained from inhibition or displacement) in data set [1] was 0.174 nM. Also, the Ratio IC50 in data set [2], in data set [3], in data set [4] and in data set [5] was 10 to 1000 throughout. Further, the half-maximal inhibitory concentration (IC50) (as a rule, the concentration needed to halve the response being measured) is 2000 nM in [6]; more than 10000 nM in data set [7]; 1000 nM in data set [8]; 63.1 nM in data set [9]; 3.16 nM in data set [10]. The Kinetic_solubility entry in [11] is on record as “Soluble”. In addition, the chromatographic logD (usually lipophilicity estimated from chromatographic retention) in [12] came to 2.4.
Consider `CC[N@+]1(C[C@@H](CC(=O)[O-])c2cccc(-n3nc(C)cc3C)c2)CC[C@@H](CCc2ccc3c(n2)NCCC3)C1`, for which the IC50 in [6] was 5010 nM; in [8], more than 10000 nM; in data set [9], 1260 nM; in data set [10] it was 39.8 nM. For the same molecule, the Kinetic_solubility result in [11] is on record as “Soluble”. Moreover, the chromatographic logD in data set [12] was 2.8.
Turning to `CC(C)(C)c1cc(Br)cc([C@H](CC(=O)O)NC(=O)CNC(=O)c2cc(O)cc(NC3=NCC(O)CN3)c2)c1` (stereo partly specified), the concentration for half-maximal inhibition (IC50) in data set [13] was determined as 0.2 nM.
Turning to `Cc1cc(C)n(-c2cccc([C@H](CC(=O)O)CN3CC[C@@H](CCc4ccc5c(n4)NCCC5)C3)c2)n1.Cl` [GSK-3008348], the pKi (usually the negative decadic logarithm of the Ki, by convention in mol/L) in data set [14] is on record as 8.7. For the same molecule, the Drug metabolism in [15] was 9.45 mL/min/g. For the same molecule, the Stability in [16] was less than 0.86 mL/min/g. For the same molecule, the clearance (in general, a measure of how efficiently the substance is removed, as volume per time) in [17] is 56 mL/min/kg. Besides, in [18], the CL free is 150 mL/min/kg. In addition, in data set [19], the distribution volume (Vd) (as a rule, the apparent volume that relates the amount in the body to the concentration in plasma or blood) was 2.1 L/kg.
`C[N+]1(C[C@@H](CC(=O)[O-])c2cccc(O[C@@H]3CCOC3)c2)CC[C@@H](CCc2ccc3c(n2)NCCC3)C1` (mixture of isomers): the IC50 is 3980 nM in data set [6]; 3980 nM in data set [7]; 79.4 nM in [8]; 200 nM in data set [9]; 12.6 nM in data set [10]. In addition, in data set [11], the Kinetic_solubility entry is on record as “Soluble”. In data set [12], this molecule returned a chromatographic logD of 1.9.
As to `Cc1cc(C)n(-c2cccc([C@H](CC(=O)[O-])C[N@@+]3(C)CC[C@@H](CCc4ccc5c(n4)NCCC5)C3)c2)n1`, the Ki in [1] is 0.107 nM. For the same molecule, the Ratio IC50 in data set [2], in data set [3], in data set [4] and in data set [5] was 10 to 1000 throughout. The half-inhibitory concentration (IC50) in [20] is more than 50100 nM; in [6], 631 nM; in data set [7] it was 6310 nM; in data set [8], 501 nM; in data set [9] it was 79.4 nM; in data set [10], 3.16 nM. Further, the Drug metabolism in [15] is 1.22 mL/min/g; in [24] it was “Metabolite not detected”. In addition, the Stability in [16] is less than 0.45 mL/min/g. For the same molecule, the figures for the fraction unbound at 4 h, 1 ug/ml in data set [21], in [22] and in data set [23] were 0.583, 0.503 and 0.097, respectively. In addition, the clearance in [25] was 87.6 mL/min/kg. The molecule further gave a CL free in [26] of 190 mL/min/kg. The volume of distribution (Vd) in [27] was 1.1 L/kg. Also, the half-life (as a rule, how long it takes for the measured level to halve) in [28] is 13.2 min. Moreover, in data set [12], the chromatographic logD was found to be 2.5. Besides, the apparent permeability coefficient (Papp) (commonly a coefficient for how fast a substance crosses the barrier) in data set [29] is less than 0.8 ×10⁻⁶ cm/s. Moreover, the solubility (kinetic) (usually the concentration staying in solution when a stock, usually in DMSO, is diluted into the medium) in data set [30] was more than 1000 µg/mL.
Turning to `Cc1ccnn1-c1cccc([C@H](CC(=O)[O-])C[N+]2(C)CC[C@@H](CCc3ccc4c(n3)NCCC4)C2)c1` (mixture of isomers), the half-inhibitory concentration (IC50) in [6] is 1580 nM; in data set [7], 6310 nM; in data set [8], 631 nM; in data set [9], 100 nM. The Kinetic_solubility result in data set [11] is given as “Soluble”. The same molecule returned a chromatographic logD in data set [12] of 2.1.
Turning to `C[N+]1(C[C@@H](CC(=O)[O-])c2cccc(N3CCOCC3)c2)CC[C@@H](CCc2ccc3c(n2)NCCC3)C1` (mixture of isomers), the IC50 is 794 nM in data set [6]; 5010 nM in data set [7]; 251 nM in [8]; 126 nM in data set [9]; 12.6 nM in [10]. Moreover, the Kinetic_solubility result in [11] is “Soluble”. In [12], this molecule came in with a chromatographic logD of 1.8.
As to `O=C(O)C[C@H](CN1CC[C@@H](CCc2ccc3c(n2)NCCC3)C1)c1cccc(N2CCOCC2)c1`, in data set [11], the Kinetic_solubility result was “Soluble”. The molecule further yielded a chromatographic logD in data set [12] of 2.3.

The values above are taken from ChEMBL document CHEMBL4373707 (J Med Chem, 2019).
